Tests used:
[1] = system: RUNX2; test: Effect of ERK inhibitor on increase in RUNX2 expression by LAD in MSCs; format: cell-based, human
Description: ERK may induce the phosphorylation of RUNX2 to increase transcriptional activity and may be involved in stability to increase an amount of RUNX2 protein (Greenblatt et al., MB, Annu Rev Cell Dev Biol. 2013). Therefore, an increase in ERK phosphorylation by LAD may induce RUNX2 expression so that LAD can be involved in the differentiation of MSCs into osteoblasts. To verify this, an expression level of RUNX2 was determined after MSCs were treated with a combination of LAD (0.1 μM) and the ERK inhibitor PD98059 (50 μM).

[2] = system: ovariectomized (OVX) mice; test: Ovariectomized (OVX) mice model of osteoporosis, femur bone parameters; format: in vivo; settings: daily for 10 weeks; for BMD: femur
Description: (§1) An ability of LAD to treat osteoporosis was confirmed in an animal model of ovariectomized (OVX) mice commonly used as an animal model of osteoporosis.
(§2) As the positive control, parathyroid hormone (PTH)-based Forteo (Eli Lilly) used as an osteoporosis therapeutic agent through an osteogenesis-promoting mechanism, and alendronate-based Fosamax (Merck) serving as a bone resorption inhibitor, were subcutaneously administered. As the negative control, water (H2O) was orally administered, and LAD was orally administered at a concentration of 5 or 30 mg/kg (FIG. 8A). After the drug was administered daily for 10 weeks, the bone mineral density (BMD) was measured.

[3] = system: RUNX2; test: Change in expression of RUNX2 in MSCs (antibody staining, fluorescence microscope); format: cell-based, human; settings: 0.001 μM (1 nM), once a day for 7 and 14 days, increased with concentration up to 0.1 μM
Description: (§3) Runt-related transcription factor 2 (RUNX2; core-binding factor alpha, Cbfa1) is the most important transcriptional regulatory factor for osteogenesis, and is known to be involved in osteoblast differentiation, matrix generation, and mineralization during the osteogenesis (Bruderer M, et al., Eur Cell Mater. 2014). Also, RUNX2 itself may be regulated by a bone morphogenetic protein (BMP), which is a type of cytokine (Sun J, et al., Mol Med Rep. 2015). Accordingly, it was confirmed whether LAD promotes the expression of an osteogenesis-related specific factor to induce osteogenesis.
(§4) MSCs were seeded in a 24-well plate at a concentration of 3×10^4 cells/well, and cultured for 24 hours. From the next day, the MSCs were treated with different concentrations (0.001 μM, 0.01 μM, and 0.1 μM) of LAD once a day for 7 days and 14 days. After the experiment was completed, the MSCs were stained with RUNX2 and BMP-2 antibodies, and observed using a fluorescence microscope.

[4] = system: BMP-2; test: Change in expression of BMP2 in MSCs (antibody staining, fluorescence microscope); format: cell-based, human; settings: 0.001 μM (1 nM), once a day for 7 and 14 days, increased with concentration up to 0.1 μM
Description: as §3, §4

[5] = system: osteocalcin; test: Change in expression of osteocalcin in MSCs (antibody staining, fluorescence microscope); format: cell-based, human; settings: 0.001 μM, within 7 days, level similar to OIM-treated group
Description: Osteocalcin is expressed only in osteoblasts (Lee et al., Cell 2007), and is used as a useful biomarker for osteogenesis (Bharadwaj et al., Osteoporosis International., 2009).
An experiment was performed in the same manner as described in Experimental Example 1-2, and MSCs were then stained with an osteocalcin antibody, and observed using a fluorescence microscope.

[6] = system: phosphorylated forms of 43 kinases (ERK, Akt, WNK1); test: Phosphokinase antibody array in MSCs; format: cell-based, human; settings: LAD 1 μM, 24 hours, compared to control DMSO
Description: To study a mechanism by which LAD differentiates MSCs into osteoblasts, related signaling was investigated.
MSCs cultured in an experimental DMEM culture medium were treated with LAD (1 μM) or the control compound (DMSO), and cultured for 24 hours. The cells were recovered, and an experiment was then performed according to a method specified in a phosphokinase antibody array kit (R&D Systems) containing antibodies that specifically recognize phosphorylated forms of 43 kinases. Then, samples were analyzed using an ImageJ (NIH, USA) program.

[7] = system: MSCs; test: Osteoblast differentiation of MSCs with LAD plus kinase inhibitor (Alizarin Red); format: cell-based, human; settings: LAD 1 μM combined with inhibitor (1 μM) of ERK, P38 or Akt, 3 weeks, compared to LAD alone
Description: To further study the mechanism by which LAD differentiates MSCs into osteoblasts, an experiment was performed using a kinase inhibitor.
After MSCs were cultured, the MSCs were simultaneously treated with a kinase inhibitor (1 μM) and LAD (1 μM). Next day, the medium was exchanged, and the MSCs were simultaneously treated again with the kinase inhibitor and LAD. This procedure was repeated for 3 weeks, and the MSCs were than stained with Alizarin Red.

[8] = system: phosphorylated ERK (pERK); test: ERK phosphorylation in MSCs after LAD treatment; format: cell-based, human
Description: Accordingly, the level of phosphorylated ERK according to time elapsed after MSCs were treated with LAD was determined.
Also, to determine whether LAD induces the ERK phosphorylation for a long period, MSCs were treated with various concentrations (0.001, 0.01, and 0.1 μM) of LAD, and the level of phosphorylated ERK (pERK) was checked after 7 days and 14 days. […] In particular, it was confirmed that the level of phosphorylated ERK (pERK) increased to a level similar to that of the positive control (OIM) even at a low concentration.

[9] = system: RUNX2; test: RUNX2 expression in femurs of ovariectomized mice; format: in vivo; settings: LAD oral, daily for 10 weeks
Description: as §1, §2
In Table 1, BMD represents bone mineral density, TV represents total volume, BV represents bone volume, Tb.Th represents trabecular thickness, and Tb.N represents trabecular number.

[10] = OVX mice, positive control subcutaneous

## COc1cccc(-c2cc(=O)c3ccccc3o2)c1N [PD98059, reference compound]
[1]; combination of LAD 0.1 μM and PD98059 50 μM, 12 hours (same at 24 hours)
  expression of RUNX2: significantly decreased

## NCCCC(O)(P(=O)(O)O)P(=O)(O)O [Fosamax, reference compound]
[2]; [10]
  BV: 1.017 mm^3
  BV/TV: 6.521%
  TV: 15.51 mm^3
  Tb. N: 0.9286 mm
  Tb. Th: 0.06994 1/mm
  BMD: 0.2145 g/mL

## CCN1C[C@]2(OC(=O)c3ccccc3NC(C)=O)CC[C@H](OC)C34C1C(C[C@@H]32)C(=O)C[C@H](OC)[C@H]1C[C@@H]4C(=O)[C@H]1OC [LAD, (3S,6S,7S,9S,11S,16S)-1-ethyl-6,9,11-trimethoxy-8,13-dioxododecahydro-2H-3,6a,14-(epiethane[1,1,2]triyl)-7,10-methanocyclodeca[b]azocin-3(4H)-yl 2-acetaminobenzoate]
[3]
  expression of RUNX2: strongly induced
[4]
  expression of BMP-2: strongly induced
[5]
  expression of osteocalcin: strongly induced
[6]
  phosphorylation of signaling molecules such as ERK, Akt, WNK1: strongly increased
[7]
  osteoblast differentiation ability of LAD (Alizarin Red): inhibited
[8]; MSCs, 0.001, 0.01 and 0.1 μM LAD, after 7 days and 14 days, similar to OIM even at low concentration
  level of phosphorylated ERK (pERK): significantly increased
[8]; MSCs, 24 hours after LAD treatment
  level of phosphorylated ERK (pERK): increased
[8]; MSCs, within 30 minutes after LAD treatment
  level of phosphorylated ERK (pERK): significantly increased
[1]; LAD 0.1 μM alone, within 12 hours (same at 24 hours)
  expression of RUNX2: significantly increased
[2]; OVX mice, LAD 5 mg/kg oral
  BV: 1.009 mm^3
  BV/TV: 6.422%
  TV: 15.6 mm^3
  Tb. N: 0.8775 mm
  Tb. Th: 0.205 1/mm
  BMD: 0.2066 g/mL
[2]; OVX mice, LAD 30 mg/kg oral
  BV: 1.17 mm^3
  BV/TV: 7.036%
  TV: 16.58 mm^3
  Tb. N: 0.9485 mm
  Tb. Th: 0.0739 1/mm
  BMD: 0.2168 g/mL
[2]; OVX mice, LAD 5 or 30 mg/kg oral, versus water
  bone mineral density compared to the negative control: significantly increased
[2]; OVX mice, LAD oral versus Forteo subcutaneous
  effect on bone mineral density compared with Forteo: significantly superior to that of Forteo
[2]; ovariectomized mice, LAD oral
  osteogenesis in the femurs (tissue staining): induced osteogenesis
[9]
  expression of RUNX2 in femurs: significantly increased

## CC[C@H](C)[C@H](NC(=O)[C@H](CCC(=O)O)NC(=O)[C@H](CO)NC(=O)[C@@H](NC(=O)[C@@H](N)CO)C(C)C)C(=O)N[C@@H](CCC(N)=O)C(=O)N[C@@H](CC(C)C)C(=O)N[C@@H](CCSC)C(=O)N[C@@H](Cc1cnc[nH]1)C(=O)N[C@@H](CC(N)=O)C(=O)N[C@@H](CC(C)C)C(=O)NCC(=O)N[C@@H](CCCCN)C(=O)N[C@@H](Cc1cnc[nH]1)C(=O)N[C@@H](CC(C)C)C(=O)N[C@@H](CC(N)=O)C(=O)N[C@@H](CO)C(=O)N[C@@H](CCSC)C(=O)N[C@@H](CCC(=O)O)C(=O)N[C@@H](CCCN=C(N)N)C(=O)N[C@H](C(=O)N[C@@H](CCC(=O)O)C(=O)N[C@@H](Cc1c[nH]c2ccccc12)C(=O)N[C@@H](CC(C)C)C(=O)N[C@@H](CCCN=C(N)N)C(=O)N[C@@H](CCCCN)C(=O)N[C@@H](CCCCN)C(=O)N[C@@H](CC(C)C)C(=O)N[C@@H](CCC(N)=O)C(=O)N[C@@H](CC(=O)O)C(=O)N[C@H](C(=O)N[C@@H](Cc1cnc[nH]1)C(=O)N[C@@H](CC(N)=O)C(=O)N[C@@H](Cc1ccccc1)C(=O)O)C(C)C)C(C)C [Forteo, reference compound]
[2]; [10]
  BV: 0.8791 mm^3
  BV/TV: 5.735%
  TV: 15.43 mm^3
  Tb. N: 0.8018 mm
  Tb. Th: 0.07112 1/mm
  BMD: 0.2013 g/mL
